Like-named read-outs stand apart in the source and are kept apart here. Each block holds one molecule with its values, some of them ahead of it.
How the values were obtained:
[1] = system: Wnt activity (Sp5-Luc reporter, TCF/LEF binding sites) in SW480 colon carcinoma cells; test: Screening assay for Wnt activity: Sp5-Luc reporter gene assay in SW480 cells; type: cell-based, human; conditions: 36 to 48 hours
Experimental: The screening assay for Wnt activity is described as follows.
Following incubation, 15 μl of BriteLite Plus luminescence reagent (Perkin Elmer) was added to each well of the 384-well assay plates. The plates were placed on an orbital shaker for 2 min and then luminescence was quantified using the Envision (Perkin Elmer) plate reader.

[2] = molecular target: DYRK1A kinase (Homo sapiens (Human), UniProt Q13627); test: DYRK1A kinase assay (Ser/Thr 18 peptide Z-lyte FRET); type: biochemical
[3] = molecular target: GSK3β kinase (Homo sapiens (Human), UniProt P49841); test: GSK3β kinase assay (Ser/Thr 09 peptide Z-lyte FRET); type: biochemical
[4] = system: Tau phosphorylation at Ser396 (pSer396) in SH-SY5Y cells; test: Tau phosphorylation (pSer396) assay in SH-SY5Y cells, ELISA/western blot; type: cell-based, human
Experimental: Two days before treatment, cells were seeded onto 96 well plates at 5×10^4 cells/well.
Wells were visually checked for cell death or change in morphology and supernatants were tested for cytotoxicity by measurement of lactate dehydrogenase release (LDH, CytoToxOne kit, Promega) if necessary.
Cells were lysed with RIPA buffer complemented with phosphatase and protease inhibitors then lysates were spun down at 12,000 g for 10 min to remove any cellular debris. Lysates are then either directly tested for pSer396 by ELISA (Life Technology, Kit KHB7031) or loaded on NuPage Bis-Tris gels for western blot analysis. Colorimetric detection of ELISA signal is performed by Cytation3 plate reader (Biotek) and the chemiluminescence signal for HRP-linked antibodies used in western blotting is detected using a Carestream Image Station. The same pSer396 antibody is used for detection of pTau in both assays.

[5] = system: SW480 colon carcinoma cells; test: Cell viability assay (CellTiter-Glo) in SW480 cells; type: cell-based, human; conditions: for EC50: four days incubation
[6] = system: α-smooth muscle actin (αSMA) in LL29 cells; test: Fibrosis assay: TGF-β1 treated primary human fibroblasts from IPF patients (LL29), αSMA staining; type: cell-based; conditions: for EC50: LL29 cells treated with TGF-β1 (20 ng/mL), 4 days; for percent in parentheses beside EC50 >10 μM: LL29 cells treated with TGF-β1, given only where EC50 >10 μM (top concentration 10 μM)
[7] = system: IL-6 in huPBMCs; test: IL-6 inhibition in LPS-stimulated human peripheral blood mononuclear cells (HTRF); type: cell-based; conditions: for EC50: LPS-stimulated (50 ng/mL) huPBMCs, 22 hours, dose-response starting from 10 μM; for percent in parentheses beside EC50 >10 μM: LPS-stimulated huPBMCs, given only where EC50 >10 μM (top concentration 10 μM)
Experimental: After 22 hour incubation, a mixture of anti-IL6 XL665 and anti-IL-6 Cryptate diluted in reconstitution buffer (Catalog #62IL6PEC, Cisbio Inc., Bedford, Mass.) was added to each well. […] All samples were processed in duplicate. […] EC50 was determined using software generated by Dotmatics Limited (Windhill Bishops Stortford Herts, UK) using the Levenberg-Marquardt 4 parameter fitting procedure with finite different gradients.

[8] = system: TNFα, BV-2 cells; test: Secreted cytokines in Lipopolysaccharide-stimulated BV-2 mouse microglial cells: TNFα; type: cell-based; conditions: LPS 250 ng/mL for 5 h
Experimental: (§1) Representative compounds were screened using the cell-based assay procedure for secreted cytokines in a Lipopolysaccharide-stimulated mouse glial cell line described below.
(§2) BV-2 cells (mouse microglial cells) were cultured in 1:1 DMEM medium supplemented with 10% FBS, and 1% penicillin/streptomycin.
(§3) BV-2 cells are plated at 35,000 cells/well in a volume of 100 ul for at least 4 hours before compounds are added. DMSO-resuspended compounds were first dispensed in a 96 well plate and serial diluted from 10 μM to 4.6 nM final concentration in medium. Compounds were added to cells overnight. Two hundred fifty ng per milliliter of lipopolysaccharide (Escherichia coli 055:B5, SIGMA) was added for 5 h. Supernatant is removed and saved for further cytokine detection. The original plates with seeded cells were tested for cytotoxicity by measure of adenosine triphosphate (ATP) release by adding CellTiter-Glo® diluted 1:4 in distilled water (G7573, Promega) and transferring lysed cells to a completely black 96-well plate to be read with the Cytation3. Supernatant was then diluted 1:2 with a diluent from V-PLEX cytokine Kit and directly tested for the secreted cytokines TNFα, IL-6 and KC-GRO using electrochemiluminescence (Meso Scale Discovery). The standard curve for each cytokine was used to convert the electrochemiluminescent signal into pg of protein per mL.

[9] = system: IL-6, BV-2 cells; test: Secreted cytokines in Lipopolysaccharide-stimulated BV-2 mouse microglial cells: IL-6; type: cell-based; conditions: LPS 250 ng/mL for 5 h
Experimental: as §1, §2, §3

[10] = system: KC-GRO, BV-2 cells; test: Secreted cytokines in Lipopolysaccharide-stimulated BV-2 mouse microglial cells: KC-GRO; type: cell-based; conditions: LPS 250 ng/mL for 5 h
Experimental: as §1, §2, §3

[11] = system: secreted β-amyloid 40 (Aβ40) peptide, SH-SY5Y-APP cells; test: Secreted β-amyloid 40 peptide assay in APP overexpressing SH-SY5Y-APP cells; type: cell-based; conditions: Homo sapiens, overnight (16-18 hours)
Experimental: Representative compounds were screened using the cell-based assay procedure for secreted β-amyloid 40 (Aβ340) peptide in an APP overexpressing cell line described below.
SH-SY5Y cells were infected with lentivirus to overexpress amyloid (A4) beta precursor protein (APP), hereafter referred to as the SH-SY5Y-APP cells. […] Culture medium was changed 18 h post-transfection before a first batch of viral supernatant was then harvested at 42 h post-transfection. Culture medium was replenished once more before a second batch of viral supernatant was harvested 66 h post-transfection.
SH-SY5Y cells were seeded onto 6-well plates at 5.0×10^5 cells/well and incubated overnight at 37° C. Cells were then infected with viral supernatant at concentrations ranging from 10%→100% viral supernatant (diluted in Opti-MEM as appropriate), with 10 μg/mL Polybrene added for permeability (H9268, Sigma). […]
The cell assay procedure start 18 h prior to treatment, as SH-SY5Y-APP cells were seeded onto 96-well plates at 2.0×10^4 cells/well. […] The original plates with seeded cells were tested for cytotoxicity by measure of adenosine triphosphate (ATP) release by adding CellTiter-Glo® diluted 1:4 in distilled water (G7573, Promega) and transferring lysed cells to a completely black 96-well plate to be read with the Cytation3. […]

[12] = DYRK1A kinase Z-lyte assay, 30 μM ATP, one hour at room temperature, text calls values IC50
[13] = GSK3β kinase Z-lyte assay, 46 μM ATP, one hour at room temperature, text calls values IC50
[14] = overnight (16-18 h) exposure, pSer396 Tau ELISA, read-out: pSer396 Tau EC50
[15] = Homo sapiens, overnight (16-18 h) exposure, pSer396 Tau ELISA, read-out: pSer396 Tau EC50
[16] = Homo sapiens, Fibroblast, 96 h, dose-response 10 μM to 0.94 nM

Sequence of GSK3β kinase (P49841 whole entry): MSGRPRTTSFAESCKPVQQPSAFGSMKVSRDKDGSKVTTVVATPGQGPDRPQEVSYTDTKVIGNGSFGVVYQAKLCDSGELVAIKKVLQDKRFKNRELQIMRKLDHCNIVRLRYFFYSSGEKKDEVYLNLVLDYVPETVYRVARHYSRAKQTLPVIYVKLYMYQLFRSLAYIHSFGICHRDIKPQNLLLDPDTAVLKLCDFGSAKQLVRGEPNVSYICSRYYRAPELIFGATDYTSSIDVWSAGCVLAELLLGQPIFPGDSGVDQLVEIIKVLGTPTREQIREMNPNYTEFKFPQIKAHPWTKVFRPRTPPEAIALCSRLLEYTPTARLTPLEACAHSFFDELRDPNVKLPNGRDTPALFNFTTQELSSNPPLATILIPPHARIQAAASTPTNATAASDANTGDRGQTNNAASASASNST

Molecule: 1-Isobutyl-N-(6-(5-methyl-1,3,4-oxadiazol-2-yl)isoquinolin-3-yl)piperidine-4-carboxamide [Compound 1020]
EC50 [1]: 1140 nM | EC50 [2, 12]: 10.4 nM | EC50 [3, 13]: 13 nM | EC50 [4, 14]: 49 nM | EC50 [5]: 1030 nM | EC50 ([6]; dose-response 10 μM to […]): > 10000 nM | percent in parentheses beside EC50 >10 μM [6]: 30.6% | EC50 [7]: 1180 nM | EC50 [8]: 597 nM | EC50 [9]: 87 nM | EC50 [10]: 708 nM

Molecule: Cn1cc(-c2ccc3cnc(NC(=O)CN4C5CCC4COC5)cc3c2)cn1 [Compound 347, 2-(3-Oxa-8-azabicyclo[3.2.1]octan-8-yl)-N-(6-(1-methyl-1H-pyrazol-4-yl)isoquinolin-3-yl)acetamide]
percent in parentheses beside EC50 >10 μM [7]: 4.5%

Molecule: Cn1cncc1-c1ccc2cnc(NC(=O)C3C(C)(C)C3(C)C)cc2c1 [Compound 269, 2,2,3,3-Tetramethyl-N-[6-(3-methylimidazol-4-yl)-3-isoquinolyl]cyclopropanecarboxamide]
IC50 [11]: > 10000 nM

Molecule: Cn1cc(-c2ccc3cnc(NC(=O)CN4C5CCC4CC5)cc3c2)nn1 [Compound 513, 2-(7-Azabicyclo[2.2.1]heptan-7-yl)-N-(6-(1-methyl-1H-1,2,3-triazol-4-yl)isoquinolin-3-yl)acetamide]
percent in parentheses beside EC50 >10 μM [7]: 14.5%

Molecule: CCN1/C(=C/C(C)=O)Sc2ccc(O)cc21 [Indy, reference compound]
EC50 ([4]; control compounds, read-out: EC50 in the Tau assay): > 10000 nM

EC50 ([1]; Homo sapiens): 578 nM | EC50 [4, 15]: 163 nM | EC50 ([5]; Homo sapiens, 96 h): 751 nM | EC50 ([7]; Homo sapiens, PBMC): 396 nM
Molecule: C[C@H](F)CN1CCC(C(=O)Nc2cc3cc(-c4cnn(C)c4)ccc3cn2)CC1 [Compound 311, (S)-1-(2-Fluoropropyl)-N-(6-(1-methyl-1H-pyrazol-4-yl)isoquinolin-3-yl) piperidine-4-carboxamide]
EC50 [6, 16]: 76 nM

Molecule: Cn1cc(-c2ccc3cnc(NC(=O)C45CCN(CC4)CC5)cc3c2)cn1 [Compound 1071, N-(6-(1-Methyl-1H-pyrazol-4-yl)isoquinolin-3-yl)quinuclidine-4-carboxamide]
percent in parentheses beside EC50 >10 μM [7]: 8.8%

Molecule: Cc1nnc(-c2ccc3cnc(NC(=O)CN4C5CCC4CC5)cc3c2)s1 [Compound 959, 2-(7-Azabicyclo[2.2.1]heptan-7-yl)-N-(6-(5-methyl-1,3,4-thiadiazol-2-yl)isoquinolin-3-yl)acetamide]
percent in parentheses beside EC50 >10 μM [7]: 6.1%

EC50 [1]: 2540 nM | EC50 [4, 14]: 319 nM | EC50 [5]: > 10000 nM | EC50 [7]: > 10000 nM | percent in parentheses beside EC50 >10 μM [7]: 10.4%
Molecule: Cc1nnc(-c2ccc3cnc(NC(=O)CN4CCCOCC4)cc3c2)s1 [Compound 1049, N-(6-(5-Methyl-1,3,4-thiadiazol-2-yl)isoquinolin-3-yl)-2-(1,4-oxazepan-4-yl) acetamide]
percent inhibition at 10 μM ([5]; at 10 μM, given for EC50 of >10 μM): 31.3%

Molecule: CC(C)CN1CCC[C@@H](C(=O)Nc2cc3cc(-c4cnn5c4CN(CCF)CC5)ccc3cn2)C1 [Compound 1002, (R)—N-(6-(5-(2-Fluoroethyl)-4,5,6,7-tetrahydropyrazolo[1,5-a]pyrazin-3-yl)isoquinolin-3-yl)-1-isobutylpiperidine-3-carboxamide]
percent in parentheses beside EC50 >10 μM [6]: 27.5%

EC50 ([1]; Homo sapiens): 1130 nM | EC50 [2, 12]: 2.4 nM | EC50 [3, 13]: 83 nM | EC50 [4, 15]: 435 nM | EC50 ([5]; Homo sapiens, 96 h): 922 nM | EC50 ([7]; Homo sapiens, PBMC): 1260 nM
Molecule: CN1CCN(C[C@H]2CC[C@H](C(=O)Nc3cc4cc(-c5cnco5)ccc4cn3)CC2)CC1 [Compound 1007, trans-4-((4-methylpiperazin-1-yl)methyl)-N-(6-(oxazol-5-yl)isoquinolin-3-yl)cyclohexane-1-carboxamide]
EC50 [6, 16]: 942 nM

Molecule: CO[C@H]1CC[C@@H](C(=O)Nc2cc3cc(-c4nnc(C)s4)ccc3cn2)CC1 [Compound 1001, cis-4-Methoxy-N-(6-(5-methyl-1,3,4-thiadiazol-2-yl)isoquinolin-3-yl) cyclohexane-1-carboxamide]
inhibition at 10 µM ([7]; Homo sapiens, PBMC, read-out: percent in parentheses beside EC50 >10 μM): 49.7%

EC50 ([1]; Homo sapiens): 738 nM | EC50 [2]: 7.6 nM | EC50 [3]: 16 nM | EC50 [4, 15]: 91 nM | EC50 ([5]; Homo sapiens, 96 h): 8390 nM | EC50 ([7]; Homo sapiens, PBMC): 6470 nM | EC50 ([9]; Mus musculus): 14 nM
Molecule: Cn1cc(-c2ccc3cnc(NC(=O)C4CCN(CC(C)(C)O)CC4)cc3c2)nn1 [Compound 1070, 1-(2-Hydroxy-2-methylpropyl)-N-(6-(1-methyl-1H-1,2,3-triazol-4-yl)isoquinolin-3-yl)piperidine-4-carboxamide]

Molecule: Cc1nnc(-c2ccc3cnc(NC(=O)CN4C5CCC4COC5)cc3c2)s1 [Compound 962, 2-(3-Oxa-8-azabicyclo[3.2.1]octan-8-yl)-N-(6-(5-methyl-1,3,4-thiadiazol-2-yl)isoquinolin-3-yl)acetamide]
percent in parentheses beside EC50 >10 μM [7]: 9.6%

Molecule: Cn1cc(-c2ccc3cnc(NC(=O)C4C(C)(C)C4(C)C)cc3c2)nn1 [Compound 277, 2,2,3,3-Tetramethyl-N-(6-(1-methyl-1H-1,2,3-triazol-4-yl)isoquinolin-3-yl) cyclopropane-1-carboxamide]
percent in parentheses beside EC50 >10 μM [7]: 4.0%
